pIC50: −log10 of the molar value.

This test deals with T1, T-type channel alpha1I (CaV 3.3) (Homo sapiens, UniProt Q9P0X4).
T1 construct: expressed in transfected cells; host or cells: HEK 293 cells, tetracycline-inducible expression
T1 sequence (Q9P0X4 whole entry): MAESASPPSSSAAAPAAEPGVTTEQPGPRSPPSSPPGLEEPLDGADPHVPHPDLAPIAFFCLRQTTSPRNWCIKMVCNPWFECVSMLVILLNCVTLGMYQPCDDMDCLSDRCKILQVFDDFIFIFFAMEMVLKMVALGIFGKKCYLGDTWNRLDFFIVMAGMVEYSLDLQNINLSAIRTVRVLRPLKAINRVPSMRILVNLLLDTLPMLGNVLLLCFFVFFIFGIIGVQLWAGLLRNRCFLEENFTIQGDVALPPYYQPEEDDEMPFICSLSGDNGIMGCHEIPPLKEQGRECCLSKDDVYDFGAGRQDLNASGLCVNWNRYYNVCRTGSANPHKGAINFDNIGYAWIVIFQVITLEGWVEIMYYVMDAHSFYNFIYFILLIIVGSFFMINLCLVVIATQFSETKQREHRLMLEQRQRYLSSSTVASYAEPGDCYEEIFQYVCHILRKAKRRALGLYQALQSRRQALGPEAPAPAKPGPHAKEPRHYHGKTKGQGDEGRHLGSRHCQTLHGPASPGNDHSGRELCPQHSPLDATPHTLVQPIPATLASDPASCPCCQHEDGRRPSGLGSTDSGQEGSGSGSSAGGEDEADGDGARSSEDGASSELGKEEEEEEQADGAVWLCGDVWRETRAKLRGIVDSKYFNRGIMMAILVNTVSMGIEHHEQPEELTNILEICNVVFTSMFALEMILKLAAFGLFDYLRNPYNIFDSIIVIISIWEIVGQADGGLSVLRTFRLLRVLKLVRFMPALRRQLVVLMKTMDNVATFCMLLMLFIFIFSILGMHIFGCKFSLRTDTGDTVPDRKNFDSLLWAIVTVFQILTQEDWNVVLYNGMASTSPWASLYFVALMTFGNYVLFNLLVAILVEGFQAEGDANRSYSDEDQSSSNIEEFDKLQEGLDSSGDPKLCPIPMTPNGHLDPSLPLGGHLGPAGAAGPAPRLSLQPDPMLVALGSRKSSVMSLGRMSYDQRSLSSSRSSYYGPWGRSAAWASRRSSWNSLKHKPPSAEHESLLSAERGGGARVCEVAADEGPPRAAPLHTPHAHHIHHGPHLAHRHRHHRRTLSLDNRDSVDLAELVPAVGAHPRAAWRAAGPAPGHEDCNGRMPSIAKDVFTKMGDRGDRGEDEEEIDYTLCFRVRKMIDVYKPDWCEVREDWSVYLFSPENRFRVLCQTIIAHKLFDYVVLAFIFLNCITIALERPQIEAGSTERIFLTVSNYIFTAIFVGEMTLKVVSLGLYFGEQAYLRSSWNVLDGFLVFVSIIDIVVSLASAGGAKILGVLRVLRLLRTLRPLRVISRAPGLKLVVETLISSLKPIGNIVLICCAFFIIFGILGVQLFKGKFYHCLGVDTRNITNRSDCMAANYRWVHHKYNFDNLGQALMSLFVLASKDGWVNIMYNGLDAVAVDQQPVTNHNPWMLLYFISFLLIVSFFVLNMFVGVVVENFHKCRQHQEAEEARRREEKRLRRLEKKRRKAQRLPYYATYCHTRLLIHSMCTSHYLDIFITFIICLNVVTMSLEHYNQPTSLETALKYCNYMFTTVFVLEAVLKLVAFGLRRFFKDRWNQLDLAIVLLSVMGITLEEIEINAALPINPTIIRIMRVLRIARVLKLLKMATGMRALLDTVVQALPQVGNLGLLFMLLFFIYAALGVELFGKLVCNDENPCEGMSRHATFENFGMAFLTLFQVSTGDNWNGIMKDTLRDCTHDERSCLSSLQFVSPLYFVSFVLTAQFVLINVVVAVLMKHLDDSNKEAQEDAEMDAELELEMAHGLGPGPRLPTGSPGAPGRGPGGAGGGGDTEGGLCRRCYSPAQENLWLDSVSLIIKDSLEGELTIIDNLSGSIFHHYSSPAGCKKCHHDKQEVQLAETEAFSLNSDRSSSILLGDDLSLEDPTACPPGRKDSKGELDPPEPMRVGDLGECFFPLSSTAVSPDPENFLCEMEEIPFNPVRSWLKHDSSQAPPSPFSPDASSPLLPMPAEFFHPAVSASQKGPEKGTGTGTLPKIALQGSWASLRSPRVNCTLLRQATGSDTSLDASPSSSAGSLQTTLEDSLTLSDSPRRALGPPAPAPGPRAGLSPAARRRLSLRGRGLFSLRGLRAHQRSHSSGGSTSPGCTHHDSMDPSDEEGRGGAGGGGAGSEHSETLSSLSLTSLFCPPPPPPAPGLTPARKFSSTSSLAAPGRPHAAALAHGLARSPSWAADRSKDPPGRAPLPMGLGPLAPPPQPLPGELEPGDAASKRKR
As to the kind of experiment: FLIPR Ca2+ Flux Assay. The conditions noted are these: alpha1I subtype; read-out: FLIPR alpha1I IP. Format: cell-based. A general note: Calcium flux is commonly read through the fluorescence of an indicator in the cells.
`C[C@@H](NC(=O)Cc1ccc(Oc2nccs2)cc1)c1ccc(OCC(F)(F)F)cn1` [Example 9]: the pIC50 was 7.34.
Consider `C[C@@H](NC(=O)Cc1ccc(-c2cnccn2)cc1)c1ccc(OCC(F)(F)F)cn1` [Example 5, 2-(4-Pyrazin-2-ylphenyl)-N-{(1R)-1-[5-(2,2,2-trifluoroethoxy)pyridin-2-yl]ethyl}acetamide], for which the pIC50 is 7.52.
Next, `C[C@@H](NC(=O)Cc1ccc(-c2cc3ccccc3n2C)cc1)c1ccc(OCC(F)(F)F)cn1` [Example 3, 2-[4-(1-Methyl-1H-indol-2-yl)phenyl]-N-{(1R)-1-[5-(2,2,2-trifluoroethoxy)pyridin-2-yl]ethyl}acetamide]: 7.44; `CC1=NOC(C)(c2ccc(CC(=O)N[C@H](C)c3ccc(OCC(F)(F)F)cn3)cc2)C1` (stereo partly drawn) [Example 7, 2-[4-(3,5-Dimethyl-4,5-dihydro-isoxazol-5-yl)phenyl]-N-{(1R)-1-[5-(2,2,2-trifluoroethoxy)pyridin-2-yl]ethyl}acetamide]: 7.39.
The same measure for `C[C@@H](NC(=O)Cc1ccc(-n2nc(C3CC3)c3ccccc32)cc1)c1ccc(OCC(F)(F)F)cn1` [Example 10]: 7.14.
Take `C[C@@H](NC(=O)Cc1ccc(-c2nccnc2C2CC2)cc1)c1ccc(OCC(F)(F)F)cn1` [Example 6, 2-[4-(3-Cyclopropylpyrazin-2-yl)phenyl]-N-{(1R)-1-[5-(2,2,2-trifluoroethoxy)pyridin-2-yl]ethyl}acetamide]: the pIC50 was 7.33.
As for `C[C@@H](NC(=O)Cc1ccc(OC2CCOC2)cc1)c1ccc(OCC(F)(F)F)cn1` (stereo partly shown) [Example 8], the pIC50 is 7.04.
As for `Cc1nccnc1-c1ccc(CC(=O)N[C@H](C)c2ccc(OCC(F)(F)F)cn2)cc1` [Example 2, 2-[4-(3-methylpyrazin-2-yl)phenyl]-N-{(1R)-1-[5-(2,2,2-trifluoroethoxy)pyridin-2-yl]ethyl}acetamide], the pIC50 is 7.62.
The same measure for `C[C@@H](NC(=O)Cc1ccc(-c2cccc3cncnc23)cc1)c1ccc(OCC(F)(F)F)cn1` [Example 1, 2-(4-Quinazolin-8-ylphenyl)-N-{(1R)-1-[5-(2,2,2-trifluoroethoxy)pyridin-2-yl]ethyl}acetamide]: 7.72; for `C[C@@H](NC(=O)Cc1ccc(-c2cnn3ncccc23)cc1)c1ccc(OCC(F)(F)F)cn1` [Example 4, 2-(4-Pyrazolo[1,5-b]pyridazin-3-ylphenyl)-N-{(1R)-1-[5-(2,2,2-trifluoroethoxy)pyridin-2-yl]ethyl}acetamide]: 8.30.
